Source: patent publication US8530183B2, “Zinc sensors for cellular imaging” (The Board of Regents of the University of Texas System, priority 2010, dated 2013)
“And” between values parts separate entries of the source, which are not always exact repeats. Equal values may be shown once. “Also recorded” adds a separate entry of the source. Read-outs that look alike come from different tables or passages of the source.

Legend:
[1] = Zn2+ titration of ZIMIR-C2 (fluorescence, NTA Zn2+ buffering system); assay type: binding
Procedure: (§1) FIGS. 3A-D. (FIG. 3A) Absorption spectrum of ZIMIR-C2. (FIG. 3B) Zn^2+ dependent fluorescence enhancement of ZIMIR-C2. Zn^2+ concentrations (nM) were 0, 43, 140, 440, 840, 1640 and 6440 (from bottom to top). (FIG. 3C) Zn^2+ titration of ZIMIR-C2 as measured from its emission at 515 nm. The solid line represents the exponential fit. […] All measurements were performed in buffers containing 100 mM Hepes, pH 7.5 with 0.4 μM of ZIMIR-C2.
Zn^2+ titration and ion selectivity of ZIMIR. To measure the Zn^2+ affinity of ZIMIR, we performed Zn2+ titration of ZIMIR-C2 (0.4 μM) using a Zn^2+ buffering system based on nitrilotriacetic acid (NTA) (Komatsu et al., 2005). The buffer contained 100 mM HEPES (pH 7.5), 10 mM NTA and varying concentrations of ZnSO4 (0-9 mM) to reach free Zn2+ concentration between 0.1 nM to 43 nM. Zn^2+ concentrations above 43 nM were not buffered. However, since the commercial Hepes always contains a trace amount of divalent metal (≦5 ppm), it was necessary to add a minimum amount of NTA to chelate the residual Zn^2+ present in the Hepes solution. […] From that point, increasing amount of ZnSO4 was added to reach higher Zn^2+ concentrations. […] To examine the Zn^2+ binding selectivity of ZIMIR against Ca^2+ or Mg^2+, we measured the fluorescence intensity of ZIMIR-C2 in a nominally Zn^2+ free solution containing 50 μM DPAS or in a solution containing 1 μM ZnCl2, with or without Ca^2+/Mg^2+ (1 mM).

[2] = Absorption, fluorescence and solubility properties of ZIMIR-C2 in aqueous solution; assay type: physicochemical
Procedure: as §1
The inventors synthesized ZIMIR in a total of 8 steps (FIG. 2). […] The absorption maximum of ZIMIR-C2 centered around 493 nm with an extinction coefficient of 73,000 M-1 cm-1. At low nanomolar [Zn^2+], ZIMIR-C2 was nearly non-fluorescent (fluorescence quantum yield Qf (0 Zn^2+) =0.0032) (FIGS. 3A-D). Its fluorescence intensity increased with [Zn^2+]and reached a plateau at micromolar [Zn^2+], with an overall fluorescence enhancement of 70-fold upon Zn^2+ complexation (Qf (Zn^2+) =0.225), providing a Zn^2+ binding dissociation constant of 0.45 μM (FIG. 3C). To confirm that

[3] = Zn2+ binding selectivity of ZIMIR-C2 against Ca2+ or Mg2+ (fluorescence intensity); conditions: Ca^2+ 1 mM, Mg^2+ 1 mM; with or without 1 μM ZnCl2
Procedure: as §1
Zn^2+ titration and ion selectivity of ZIMIR. To measure the Zn^2+ affinity of ZIMIR, we performed Zn2+ titration of ZIMIR-C2 (0.4 μM) using a Zn^2+ buffering system based on nitrilotriacetic acid (NTA) (Komatsu et al., 2005). The buffer contained 100 mM HEPES (pH 7.5), 10 mM NTA and varying concentrations of ZnSO4 (0-9 mM) to reach free Zn2+ concentration between 0.1 nM to 43 nM. Zn^2+ concentrations above 43 nM were not buffered. However, since the commercial Hepes always contains a trace amount of divalent metal (≦5 ppm), it was necessary to add a minimum amount of NTA to chelate the residual Zn^2+ present in the Hepes solution. […] To examine the Zn^2+ binding selectivity of ZIMIR against Ca^2+ or Mg^2+, we measured the fluorescence intensity of ZIMIR-C2 in a nominally Zn^2+ free solution containing 50 μM DPAS or in a solution containing 1 μM ZnCl2, with or without Ca^2+/Mg^2+ (1 mM).

[4] = FluoZin-3, background; read-out: Kd(Ca^2+); cited from earlier work
[5] = FluoZin-3, background; read-out: Zn^2+ dissociation constant Kd(Zn^2+); cited from earlier work
INS-1 cells = experiment: Response of membrane-anchored ZIMIR to extracellular Zn2+ and decay upon Zn2+ washout; assay type: cell-based, rat; conditions: INS-1 cells labeled with ZIMIR, EDTA 10 μM plus DPAS at low micromolar concentrations
Procedure: FIGS. 5A-B. Membrane anchored ZIMIR reports changes of [Zn^2+]e. (FIG. 5A) Example fluorescence images (Excitation 488±7.5 nm, emission 530±20 nm) of INS-1 cells labeled with ZIMIR at different [Zn^2+]e. (FIG. 5B) Quantification of the average ZIMIR fluorescence intensity along the plasma membrane (IZIMIR(PM)).
(FIG. 7A) Time courses of IZIMIR(PM) decay after washing INS-1 cells (initially bathed in FIBS containing 1 μM Zn^2+) with HBS containing EDTA (10 μM) and DPAS (0-8 μM). (FIG. 7B) ZIMIR imaging of insulin/Zn^2+ release of MIN6 cells bathed in SAB containing EDTA (10 μM) and DPAS (4 μM). Time courses of IZIMIR(PM) fluctuation of four separate regions of interest (ROI 1-4) and example ZIMIR images at different time points were shown (a-e; arrow heads highlighting local ZIMIR increases in separate ROIs at different time).
To characterize the response of membrane anchored ZIMIR to changes of extracellular Zn^2+ concentration ([Zn^2+]), the inventors varied [Zn^2+]e from low nanomolar to micromolar, using Zn^2-1 buffers containing nitrilotriacetic acid (for [Zn^2+]e<100 nM) (Hirano et al., 2000) or histidine (for [Zn^2+]e. 100 nM) (Hauser and Tsien, 2007). After recording fluorescence images at different [Zn^2+]e levels, the inventors washed cells with a nominally Zn^2+ free SAB containing 0.2 mM DPAS and followed the decay of IZIMIR(PM).
Upon membrane depolarization, ZIMIR signal increased immediately and reached a plateau before it gradually declined (FIGS. 6E-F). Unexpectedly, however, in some occasions, ZIMIR signal remained elevated even after the inventors lowered KCl concentration to the resting level (5 mM) (FIG. 9). […] In INS-1 beta cells labeled with ZIMIR, after recording ZIMIR fluorescence in solutions containing ˜1 μM of Zn2+, the inventors perifused cells with a nominally Zn^2+-free solution containing only EDTA (10 μM), or with both EDTA (10 μM) and different concentrations of DPAS.

[6] = Competition assay of Zn2+ chelation kinetics (ZIMIR-C2 fluorescence decline after adding EDTA or DPAS); conditions: physiological salines, ZIMIR-C2 1 μM in Hanks Balanced Saline Solution
Procedure: FIG. 10. […] In this competition assay, fluorescence intensity (Ex 490 nm, Em 525 nm) of ZIMIR-C2 (1 μM) in Hanks Balanced Saline Solution was recorded. The rate of fluorescence intensity decline after adding EDTA or DPAS reflects the kinetics of EDTA/Zn^2I or DPAS/Zn^2+ complexation.

pancreatic islets = experiment: Confocal imaging of dye uptake and insulin/Zn2+ release in pancreatic islets; assay type: cell-based, mouse; conditions: ZIMIR 2 μM for 25 min; mouse and human islets
Procedure: FIGS. 8A-C. Imaging insulin/Zn^2+ release in islets by confocal laser scanning microscopy. (FIGS. 8A-B) Confocal images of mouse islets labeled with ZIMIR (FIG. 8A) or calcein/AM (FIG. 8B). (FIG. 8C) Confocal ZIMIR imaging of insulin/Zn^2+ release in a mouse islet bathed in SAB. Images from two example layers 15 μm apart before and 10 sec post KCl (40 mM) stimulation were shown.
FIG. 11. ZIMIR rapidly labels cells of intact human islets. Representative CLSM images of a ZIMIR labeled human islet at three focal planes 20 μm apart.
Islets labeling and ZIMIR imaging by confocal laser scanning microscopy. Experiments with rodent animals were carried out according to protocols approved by the Institutional Animal Care and Use Committee of University of Texas Southwestern Medical Center. Rodent islets were isolated from Sprague-Dawley rats or C57BL/6 mice after digesting exocrine tissues of pancreas using collagenase as described below. To image insulin release in islets, the inventors labeled islets with ZIMIR (final concentration 2 μM with 0.025% Pluronic) in SAB buffer for […]. Labeled islets were then transferred to an imaging dish that had been coated with 0.5% PuraMatrix peptide hydrogel (BD Biosciences, Cat # 354250). Islets adhered to the PuraMatrix hydrogel within 5 min. They then imaged ZIMIR fluorescence by confocal laser scanning microscopy using a LSM510 imaging system (Carl Zeiss) and a 40× oil immersion objective (Dakin and Li, 2007).
Confocal imaging of ZIMIR uptake and insulin/Zn^2+ release in pancreatic islets. In addition to cultured cells, ZIMIR also rapidly and noninvasively labels cells in preparations such as dissected pancreatic islets. After loading islets with ZIMIR (2 μM) for 25 min, the inventors applied CLSM to track the distribution of ZIMIR in three dimensions (3D). […] The result confirmed that ZIMIR readily diffused through the interstitial space to reach interior cells, whereas calcein/AM was trapped by cells in the outer layer, unable to penetrate any deeper. After labeling, the inventors depolarized cells with high concentration of KCl.

CCN(CC(=O)O)Cc1c2oc3c(CN(CC)CC(=O)O)c(O)ccc3c(-c3cc(NCCN(CCc4ccccn4)Cc4ccccn4)ccc3C(=O)O)c-2ccc1=O [ZIMIR-C2]
Kd ([1]; 0.4 μM ZIMIR-C2, 100 mM HEPES pH 7.5, two independent titrations, read-out: Kd(Zn^2+), independent Zn^2+ titrations): 433 nM and 467 nM | Kd ([1]; FIG. 3C, emission at 515 nm, read-out: Zn^2+ binding dissociation constant): 450 nM | Kd ([1]; average of two titrations, 100 mM HEPES pH 7.5, read-out: average Kd(Zn^2+)): 450 nM | overall fluorescence enhancement upon Zn^2+ complexation ([1]; plateau at micromolar [Zn^2+]): 70 fold | absorption maximum ([2]; 100 mM Hepes, pH 7.5): around 493 nm | aqueous solubility ([2]; aqueous solutions): highly soluble | extinction coefficient ([2]; at absorption maximum): 73,000 M-1 cm-1 | fluorescence quantum yield Qf (0 Zn^2+) ([2]; low nanomolar [Zn^2+]): 0.0032 | fluorescence quantum yield Qf (Zn^2+) ([2]; upon Zn^2+ complexation, micromolar [Zn^2+]): 0.225 | effect of Ca^2+ and Mg^2+ on fluorescence / Zn^2+ selectivity [3]: neither Ca^2+ nor Mg^2+ affected ZIMIR-C2 fluorescence; also recorded: binds Zn^2+ selectively against Ca^2+ (1 mM) and Mg^2+ (1 mM)

COc1ccc(N(CC(=O)O)CC(=O)O)c(OCCOc2cc(-c3c4cc(F)c(=O)cc-4oc4cc(O)c(F)cc34)ccc2NCC(=O)O)c1 [FluoZin-3]
Kd [4]: ~10000 nM | Kd [5]: 15 nM

O=S(=O)(O)CCN(Cc1ccccn1)Cc1ccccn1 [DPAS, 2-[Bis(2-pyridinylmethyl)amino]-ethanesulfonic acid]
increase of the rate of Zn^2+ dissipation from the plasma membrane (INS-1 cells): about one order of magnitude | Zn^2+ chelation kinetics compared with EDTA [6]: much faster kinetics than EDTA

calcein/AM [reference compound]
distribution of dye in islets (3D, CLSM) (pancreatic islets): only labeled cells of the superficial layers
